Experimental data taken from patent US7985761B2, “Diphenylurea derivatives and their use as chloride channel blockers or BKCa channel modulators” (Neurosearch A/S, priority 2006, dated 2011).

What was measured:
Format in all cases: cell-based
human BK channels = molecular target: T1, human BK channels (Homo sapiens, UniProt Q12791); assay: Human BK channel screening, two-electrode voltage clamp in Xenopus oocytes; conditions: 0.3 μM test compound, Xenopus oocytes expressing human BK channels
T1 construct: expressed in transfected cells; host or cells: Xenopus oocytes
T1 sequence (Q12791 whole entry): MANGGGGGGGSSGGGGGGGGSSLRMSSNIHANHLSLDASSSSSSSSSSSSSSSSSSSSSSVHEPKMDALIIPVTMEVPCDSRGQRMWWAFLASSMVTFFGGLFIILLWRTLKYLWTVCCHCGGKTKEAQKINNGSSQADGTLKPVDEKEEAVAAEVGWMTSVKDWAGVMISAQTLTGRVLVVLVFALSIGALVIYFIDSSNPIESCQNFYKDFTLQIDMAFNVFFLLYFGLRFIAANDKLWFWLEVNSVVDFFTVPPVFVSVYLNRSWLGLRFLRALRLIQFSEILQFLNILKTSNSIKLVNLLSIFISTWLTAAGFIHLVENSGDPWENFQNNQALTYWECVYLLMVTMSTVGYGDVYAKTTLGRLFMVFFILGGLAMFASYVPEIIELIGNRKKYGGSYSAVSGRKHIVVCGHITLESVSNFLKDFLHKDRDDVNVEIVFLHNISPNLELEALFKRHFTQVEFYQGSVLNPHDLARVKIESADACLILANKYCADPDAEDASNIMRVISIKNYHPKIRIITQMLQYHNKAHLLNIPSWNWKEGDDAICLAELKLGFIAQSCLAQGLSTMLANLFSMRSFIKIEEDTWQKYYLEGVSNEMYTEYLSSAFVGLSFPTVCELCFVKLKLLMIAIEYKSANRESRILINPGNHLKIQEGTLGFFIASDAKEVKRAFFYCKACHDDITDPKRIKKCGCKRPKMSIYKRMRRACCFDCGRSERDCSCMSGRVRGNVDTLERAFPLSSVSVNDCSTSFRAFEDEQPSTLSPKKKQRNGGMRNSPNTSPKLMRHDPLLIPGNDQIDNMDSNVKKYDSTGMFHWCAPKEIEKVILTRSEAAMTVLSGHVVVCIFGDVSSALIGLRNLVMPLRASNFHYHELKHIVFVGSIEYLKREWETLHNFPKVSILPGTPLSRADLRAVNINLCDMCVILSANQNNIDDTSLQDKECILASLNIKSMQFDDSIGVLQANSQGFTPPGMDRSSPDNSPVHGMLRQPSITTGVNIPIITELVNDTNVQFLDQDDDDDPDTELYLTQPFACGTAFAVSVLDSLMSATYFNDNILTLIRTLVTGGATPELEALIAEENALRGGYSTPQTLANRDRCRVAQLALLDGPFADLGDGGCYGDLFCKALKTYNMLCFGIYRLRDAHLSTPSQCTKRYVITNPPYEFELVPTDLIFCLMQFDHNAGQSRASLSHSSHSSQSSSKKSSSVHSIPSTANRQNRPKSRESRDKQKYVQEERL
Protocol: Human BK Channel Screening
The influence of a compound on the membrane currents was determined electrophysiologically on Xenopus Oocytes capable of expressing human BK channels, and the current through the channels was recorded using the classical two-electrode voltage clamp technique.
The first compound of Example 4, N-(3,5-Difluoro-phenyl)-N′-[3-(5-oxo-4,5-dihydro-[1,2,4]oxadiazol-3-yl)-4′-trifluoromethyl-biphenyl-4-yl]urea, was subjected to this determination at a concentrations of 0.3 μM of test compound, and it caused an increase of BK current relative to the basal current of more than 200%.

[1] = molecular target: T2, Volume Regulated Anion Channel (VRAC) (Homo sapiens, UniProt Q8IWT6); assay: Volume Regulated Anion Channel (VRAC) effect, whole cell patch clamp in HEK293 cells; conditions: VRAC activated by swelling in hypotonic (75% tonicity) extracellular solution, read-out: KD value (time dependent block of VRAC current)
T2 construct: endogenous in cells; host or cells: HEK293
T2 sequence (Q8IWT6 1-810): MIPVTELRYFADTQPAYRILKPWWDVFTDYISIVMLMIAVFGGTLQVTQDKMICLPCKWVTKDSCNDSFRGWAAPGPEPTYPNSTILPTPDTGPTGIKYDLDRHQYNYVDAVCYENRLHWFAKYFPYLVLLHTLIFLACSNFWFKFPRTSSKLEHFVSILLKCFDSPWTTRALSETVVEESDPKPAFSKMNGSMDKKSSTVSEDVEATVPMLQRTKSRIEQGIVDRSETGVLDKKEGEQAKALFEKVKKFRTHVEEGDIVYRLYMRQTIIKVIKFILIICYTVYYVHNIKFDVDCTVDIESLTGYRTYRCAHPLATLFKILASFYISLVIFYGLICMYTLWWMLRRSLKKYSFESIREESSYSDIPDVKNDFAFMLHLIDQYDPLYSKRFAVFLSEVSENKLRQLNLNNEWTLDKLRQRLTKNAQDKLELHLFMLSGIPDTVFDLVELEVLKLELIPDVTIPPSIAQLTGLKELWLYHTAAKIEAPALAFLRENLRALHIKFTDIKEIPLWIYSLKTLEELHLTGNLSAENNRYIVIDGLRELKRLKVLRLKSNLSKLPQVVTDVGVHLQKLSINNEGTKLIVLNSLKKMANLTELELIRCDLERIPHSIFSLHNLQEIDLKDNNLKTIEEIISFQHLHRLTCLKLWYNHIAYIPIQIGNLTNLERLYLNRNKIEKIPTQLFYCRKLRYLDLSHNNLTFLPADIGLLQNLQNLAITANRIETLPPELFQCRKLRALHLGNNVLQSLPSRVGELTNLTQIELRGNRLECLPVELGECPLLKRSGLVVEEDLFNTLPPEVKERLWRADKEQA
Protocol: Volume Regulated Anion Channel (VRAC) Effect
The activity on the Volume Regulated Anion Channel (VRAC) was tested by the whole cell patch clamp technique using Human Embryonic Kidney cells (HEK293) as described in Helix et al, J Membr Biol. 2003 196(2):83-94, In short, VRAC was activated by swelling of the cell in hypotonic (75% tonicity) extracellular salt solution and the anion current elicited by voltage ramps was measured vs. time. After stabilization of the current the compound to be tested was added to the extracellular solution and the time dependent block was followed for calculation of the KD value.

[2] = tested on: human erythrocyte chloride channels; assay: In vitro human erythrocyte chloride conductance; conditions: read-out: IC50 value - the concentration at which 50% of the chloride channels are blocked
Protocol: In Vitro Human Erythrocyte Chloride Conductance
The chloride conductance was measured according to the proceeding as described in the “Biology” paragraph of the specification of WO 00/24707. The parameter calculated from these studies is the IC50 value—the concentration at which 50% of the chloride channels are blocked.

- increase of BK current relative to the basal current (human BK channels): more than 200%
- Kd [1]: 0.23 µM
- IC50 [2]: 0.28 µM
Structure (SMILES): O=C(Nc1cc(F)cc(F)c1)Nc1ccc(-c2ccc(C(F)(F)F)cc2)cc1-c1noc(=O)[nH]1 [first compound of Example 4, N-(3,5-Difluoro-phenyl)-N′-[3-(5-oxo-4,5-dihydro-[1,2,4]oxadiazol-3-yl)-4′-trifluoromethyl-biphenyl-4-yl]urea]
